From PubChem BioAssay (NCI)
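Where inhibition never reached the appropriate level, the endpoint shown equals the highest concentration tested. Otherwise, values were interpolated linearly from a five-concentration, 48-hour dose response in 96-well plates. The concentration for 50% growth inhibition is given as GI50. At the TGI there is no net growth.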

Tests used:
Assay in all cases: NCI anticancer screen, dose series, 48 h
RXF 393 renal = test system: RXF 393 renal
HS 578T breast = test system: HS 578T breast
HOP-62 NSCLC = test system: HOP-62 NSCLC
UACC-257 melanoma = test system: UACC-257 melanoma
NCI/ADR-RES ovarian = test system: NCI/ADR-RES ovarian
SF-295 CNS = test system: SF-295 CNS
SK-OV-3 ovarian = test system: SK-OV-3 ovarian
HCT-116 colon = test system: HCT-116 colon
SF-539 CNS = test system: SF-539 CNS
COLO 205 colon = test system: COLO 205 colon
BT-549 breast = test system: BT-549 breast
SNB-19 CNS = test system: SNB-19 CNS
K-562 leukemia = test system: K-562 leukemia
HL-60(TB) leukemia = test system: HL-60(TB) leukemia
KM12 colon = test system: KM12 colon
OVCAR-4 ovarian = test system: OVCAR-4 ovarian
IGROV1 ovarian = test system: IGROV1 ovarian
A498 renal = test system: A498 renal
SF-268 CNS = test system: SF-268 CNS
CCRF-CEM leukemia = test system: CCRF-CEM leukemia
MDA-MB-435 = test system: MDA-MB-435
UO-31 renal = test system: UO-31 renal
SK-MEL-28 melanoma = test system: SK-MEL-28 melanoma
NCI-H226 lung = test system: NCI-H226 lung
DU-145 prostate = test system: DU-145 prostate
SK-MEL-2 melanoma = test system: SK-MEL-2 melanoma
OVCAR-8 ovarian = test system: OVCAR-8 ovarian
HCC-2998 colon = test system: HCC-2998 colon
HCT-15 colon = test system: HCT-15 colon
PC-3 prostate = test system: PC-3 prostate
MCF7 breast = test system: MCF7 breast
SK-MEL-5 melanoma = test system: SK-MEL-5 melanoma
RPMI-8226 leukemia = test system: RPMI-8226 leukemia
UACC-62 melanoma = test system: UACC-62 melanoma
NCI-H23 lung = test system: NCI-H23 lung
LOX IMVI melanoma = test system: LOX IMVI melanoma
EKVX NSCLC = test system: EKVX NSCLC
ACHN renal = test system: ACHN renal
SW-620 colon = test system: SW-620 colon
NCI-H522 lung = test system: NCI-H522 lung
SNB-75 CNS = test system: SNB-75 CNS
T-47D breast = test system: T-47D breast
U251 CNS = test system: U251 CNS
M14 melanoma = test system: M14 melanoma
CAKI-1 renal = test system: CAKI-1 renal
MOLT-4 leukemia = test system: MOLT-4 leukemia
MALME-3M melanoma = test system: MALME-3M melanoma
NCI-H460 lung = test system: NCI-H460 lung
MDA-MB-231 breast = test system: MDA-MB-231 breast
786-0 renal = test system: 786-0 renal
A549 NSCLC = test system: A549 NSCLC
OVCAR-5 ovarian = test system: OVCAR-5 ovarian
HT29 colon = test system: HT29 colon
SN12C renal = test system: SN12C renal
TK-10 renal = test system: TK-10 renal
HOP-92 NSCLC = test system: HOP-92 NSCLC

## CCCCCc1ccc(S(=O)(=O)N(C(C)=O)c2cccc(-c3csc(N(CCN4CCN(C)CC4)C(C)=O)n3)c2)cc1
RXF 393 renal
  GI50: 1190 nM
  TGI: 4.35 µM
HS 578T breast
  GI50: 3.3 µM
  TGI: 10.8 µM
HOP-62 NSCLC
  GI50: 3.58 µM
  TGI: 7.3 µM
UACC-257 melanoma
  GI50: 4.37 µM
  TGI: 8.1 µM
NCI/ADR-RES ovarian
  GI50: 3.5 µM
  TGI: 7.55 µM
SF-295 CNS
  GI50: 3.63 µM
  TGI: 7.15 µM
SK-OV-3 ovarian
  GI50: 4.04 µM
  TGI: 7.64 µM
HCT-116 colon
  GI50: 929 nM
  TGI: 3.41 µM
SF-539 CNS
  GI50: 3.64 µM
  TGI: 7.01 µM
COLO 205 colon
  GI50: 815 nM
  TGI: 2960 nM
BT-549 breast
  GI50: 2940 nM
  TGI: 6.04 µM
SNB-19 CNS
  GI50: 3.63 µM
  TGI: 7.14 µM
K-562 leukemia
  GI50: 751 nM
  TGI: 3.01 µM
HL-60(TB) leukemia
  GI50: 991 nM
  TGI: 4.51 µM
KM12 colon
  GI50: 4.04 µM
  TGI: 8.04 µM
OVCAR-4 ovarian
  GI50: 3.49 µM
  TGI: 7.42 µM
IGROV1 ovarian
  GI50: 2960 nM
  TGI: 6.61 µM
A498 renal
  GI50: 1240 nM
  TGI: 4.75 µM
SF-268 CNS
  GI50: 3.56 µM
  TGI: 7.6 µM
CCRF-CEM leukemia
  GI50: 1950 nM
  TGI: 7.49 µM
MDA-MB-435
  GI50: 987 nM
  TGI: 3.74 µM
UO-31 renal
  GI50: 2860 nM
  TGI: 5.96 µM
SK-MEL-28 melanoma
  GI50: 3.07 µM
  TGI: 6.22 µM
NCI-H226 lung
  GI50: 4.09 µM
  TGI: 8.82 µM
DU-145 prostate
  GI50: 3.48 µM
  TGI: 6.81 µM
SK-MEL-2 melanoma
  GI50: 3.99 µM
  TGI: 7.44 µM
OVCAR-8 ovarian
  GI50: 3.51 µM
  TGI: 6.95 µM
HCC-2998 colon
  GI50: 1150 nM
  TGI: 4.07 µM
HCT-15 colon
  GI50: 837 nM
  TGI: 2980 nM
PC-3 prostate
  GI50: 3.32 µM
  TGI: 7.06 µM
MCF7 breast
  GI50: 830 nM
  TGI: 3.3 µM
SK-MEL-5 melanoma
  GI50: 3.31 µM
  TGI: 6.57 µM
RPMI-8226 leukemia
  GI50: 2500 nM
  TGI: 7.53 µM
UACC-62 melanoma
  GI50: 4.21 µM
  TGI: 7.79 µM
NCI-H23 lung
  GI50: 3.8 µM
  TGI: 7.39 µM
LOX IMVI melanoma
  GI50: 85 nM
  TGI: 1260 nM
EKVX NSCLC
  GI50: 3.79 µM
  TGI: 7.27 µM
ACHN renal
  GI50: 3.52 µM
  TGI: 6.77 µM
SW-620 colon
  GI50: 824 nM
  TGI: 3.19 µM
NCI-H522 lung
  GI50: 3.91 µM
  TGI: 7.55 µM
SNB-75 CNS
  GI50: 1060 nM
  TGI: 5.21 µM
T-47D breast
  GI50: 2790 nM
  TGI: 6.73 µM
U251 CNS
  GI50: 2750 nM
  TGI: 5.81 µM
M14 melanoma
  GI50: 2230 nM
  TGI: 5.64 µM
CAKI-1 renal
  GI50: 2930 nM
  TGI: 6.2 µM
MOLT-4 leukemia
  GI50: 1220 nM
  TGI: 5.26 µM
MALME-3M melanoma
  GI50: 1580 nM
  TGI: 5.04 µM
NCI-H460 lung
  GI50: 1400 nM
  TGI: 4.61 µM
MDA-MB-231 breast
  GI50: 2640 nM
  TGI: 5.96 µM
786-0 renal
  GI50: 642 nM
  TGI: 2000 nM
A549 NSCLC
  GI50: 3.03 µM
  TGI: 6.27 µM
OVCAR-5 ovarian
  GI50: 3.5 µM
  TGI: 6.81 µM
HT29 colon
  GI50: 856 nM
  TGI: 2710 nM
SN12C renal
  GI50: 3.4 µM
  TGI: 6.75 µM
TK-10 renal
  GI50: 4.08 µM
  TGI: 7.57 µM
HOP-92 NSCLC
  GI50: 1060 nM
  TGI: 4.62 µM
